Assay results taken from article PMC2535826, “Cross-Species Differential Plasma Protein Binding of MBX-102/JNJ39659100: A Novel PPAR-γ Agonist” (PPAR Research, 2008).
Read-outs that look alike come from different tables or passages of the source.

Legend:
[1] = Plasma protein binding by equilibrium dialysis, rat plasma; format: in vitro ADME, Sprague Dawley rats; conditions: Sprague Dawley, equilibrium dialysis vs PBS, 37°C, read-out: %Protein Binding ± SD (converted)
Protocol: Radiolabeled MBX-102 acid was prepared as a 1 mL ethanol solution at a concentration of 50 μM (1 mCi total). […] Final solvent concentrations were 1% of the total volume. Plasma was stored at −20°C. Prior to use, it was thawed and spun at approximately 2000 rpm for 5 minutes to remove any precipitated material. The pH was adjusted to pH 7.4 by careful addition of NaH2PO4. A 1 mL sample of spiked plasma was prepared by direct dilution of [^3H]-MBX-102 acid stock solution into plasma and then added to one side of an equilibrium dialysis chamber. The other chamber was filled with 1 mL of 0.01 M phosphate buffered saline (PBS). The dialysis apparatus was placed in a water bath at 37°C and rotated at 20 rpm. […] Once equilibrium was established, the contents of the cell chambers were removed and analyzed by liquid scintillation counting. The chambers were sampled in triplicate. […] The recovery percentage was found not to vary with MBX-102 acid concentration.

human serum albumin = molecular target: T1, human serum albumin (Homo sapiens, UniProt P02768); assay: Albumin binding by surface plasmon resonance (SPR), HSA; conditions: for %Bound: converted from KD
T1 construct: purchased Sigma
Protocol: The characterization of the binding of MBX-102 acid against human, mouse, and rat albumin was performed using SPR-based biosensors (Biosensor Tools, Salt Lake City, Utah, USA). The assay methods used to assess the binding of MBX-102 acid to human, mouse, and rat albumins have been described previously. Briefly, each albumin was immobilized onto a CM5 sensor chip using standard amine coupling. Immobilization densities were between 10 000 and 13 000 RU. […] Each of the 16 different concentrations was tested in duplicate. […] All binding data were collected at 37°C. The binding response profile of MBX-102 acid over the three different albumin surfaces was evaluated and the binding constants for the high-affinity site were determined using a two-independent-site model. Conversion from KD to %bound was performed as previously described.

rat and human plasma = assay: Competitive equilibrium dialysis, rat versus human plasma; format: in vitro ADME, Sprague-Dawley rat; conditions: 37°C, n = 5
Protocol: (§1) A comparison of the binding to plasma from different species was performed essentially by the method described below. Briefly, [^3H] MBX-102 acid spiked plasma samples were formulated as described above with the exception that pH was not adjusted to 7.4 and the final DMSO concentration was 0.6%. A 1 mL sample of spiked human plasma was applied to one side of the dialysis membrane and 1 mL of spiked animal plasma was applied to the other side. The samples were dialyzed by rotation at 20 rpm for up to 120 hours in a 37°C incubator. The ratio of free drug in plasma was calculated according to the equation: ratio of free drug (animal versus human) = (total cpm in human plasma)/(total cpm in animal plasma).

mouse and human plasma = assay: Competitive equilibrium dialysis, mouse versus human plasma; format: in vitro ADME, CD-1 mouse; conditions: 37°C, n = 5
Protocol: as §1

Gal 4-Mouse PPAR-γ LBD = molecular target: T2, Gal 4-Mouse PPAR-γ LBD (Mus musculus, UniProt P37238); assay: PPAR-γ reporter gene (transactivation) assay in HEK-293T cells with serum or serum proteins; format: cell-based
T2 construct: 5 μg Gal 4-Mouse PPAR-γ LBD; expressed in transfected cells; host or cells: HEK-293T
T2 sequence (P37238 238-503 limits assumed): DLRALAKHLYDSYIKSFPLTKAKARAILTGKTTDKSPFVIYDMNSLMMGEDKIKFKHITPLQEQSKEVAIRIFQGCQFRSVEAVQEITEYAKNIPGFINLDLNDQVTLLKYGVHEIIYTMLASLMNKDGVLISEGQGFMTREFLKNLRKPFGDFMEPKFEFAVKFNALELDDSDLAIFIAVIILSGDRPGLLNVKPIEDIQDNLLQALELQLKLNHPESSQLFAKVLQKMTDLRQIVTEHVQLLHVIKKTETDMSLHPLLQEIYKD
Protocol: All cells were maintained at 37°C in a humidified atmosphere of 8% CO2 in air.
(§2) For a pool sufficient to supply 100 wells, 6 million cells were diluted into medium for a total volume of 9 mL. The DNA-Lipofectamine 2000 mixture was prepared as per manufacturer’s instructions. For a pool sufficient to supply 100 wells, 5 μg Gal 4-Mouse PPAR-γ LBD, 5 μg pFR-Luciferase, and 500 ng Lac-z plasmids were mixed with 40 μL of Lipofectamine 2000 in Optimem medium in a total volume of 1 mL. The cell suspension was mixed with 1 mL of the DNA-Lipofectamine 2000 mixture. The mixture was plated into a 96-well plate and incubated for 4 hours at which time the transfection medium was removed and replaced with 100 μL DMEM, 10% (v/v) FBS and cultured overnight. The culture medium was then removed from the plates and replaced with 50 μL Pro293A medium. Compounds and charcoal stripped/delipidated serum or serum albumin, or alpha-1 acid glycoprotein stock solutions were prepared at 2X final concentration in Pro293A medium and mixed together prior to addition of 50 μL to the transfected cells and incubated for an additional 24 hours. Measurement of luciferase and fluorescence activity was performed according to the manufacturer’s instructions. Briefly, after removal of media, cells were incubated for 10 minutes in 100 μL of Steady-Glo reagent. An 80 μL lysate aliquot was transferred to opaque white well plates and the luminescence measured. The 80 μL aliquot was then transferred back to the original plate. […] Each experimental condition was assessed in quadruplicate. The data were normalized for each well by dividing the luminescence measurement by the fluorescence measurement. Dose-response curves were generated and EC50 values were calculated using Prism Graphpad version 5.1.

[2] = system: human, mouse, or rat PPAR-γ; assay: PPAR-γ reporter gene assays comparing human, mouse and rat PPAR-γ (data not shown); format: cell-based
Protocol: as §2, with “Compounds and charcoal stripped/delipidated serum or serum albumin, or alpha-1 acid glycoprotein stock solutions were prepared at 2X final concentration in Pro293A medium and mixed together prior to addition of 50 μL to the transfected cells and incubated for an additional 24 hours.” left out, “Briefly, after removal of media, cells were incubated for 10 minutes in 100 μL of Steady-Glo reagent.” left out, “measured.” for “measured. The 80 μL aliquot was then transferred back to the original plate.”

T1 sequence (P02768 25-609): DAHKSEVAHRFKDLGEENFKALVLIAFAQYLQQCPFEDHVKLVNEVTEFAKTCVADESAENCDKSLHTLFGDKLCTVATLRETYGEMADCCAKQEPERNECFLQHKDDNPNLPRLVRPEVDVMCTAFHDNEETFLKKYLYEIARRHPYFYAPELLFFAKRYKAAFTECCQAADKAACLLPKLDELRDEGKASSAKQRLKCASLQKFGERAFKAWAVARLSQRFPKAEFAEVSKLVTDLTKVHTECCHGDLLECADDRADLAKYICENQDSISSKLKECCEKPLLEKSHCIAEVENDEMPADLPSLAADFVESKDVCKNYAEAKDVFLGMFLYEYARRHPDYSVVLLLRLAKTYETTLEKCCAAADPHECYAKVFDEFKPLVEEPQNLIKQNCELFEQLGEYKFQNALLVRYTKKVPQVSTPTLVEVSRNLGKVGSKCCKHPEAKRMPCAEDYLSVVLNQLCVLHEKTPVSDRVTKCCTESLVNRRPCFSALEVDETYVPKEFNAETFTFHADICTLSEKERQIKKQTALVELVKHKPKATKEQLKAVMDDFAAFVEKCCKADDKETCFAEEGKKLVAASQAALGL

What does the source list for `O=C(O)[C@H](Oc1cccc(C(F)(F)F)c1)c1ccc(Cl)cc1` (stereo in doubt) [MBX-102 acid]?
fraction unbound at 400 µM ([1]; pH 7.4, MBX-102 acid 400 μM): 0.002; fraction unbound at 600 µM ([1]; pH 7.4, MBX-102 acid 600 μM): 0.002; fraction unbound at 1000 µM ([1]; pH 7.4, MBX-102 acid 1000 μM): 0.003; fraction unbound at 1500 µM ([1]; pH 7.4, MBX-102 acid 1500 μM): 0.002; fraction unbound at 2000 µM ([1]; pH 7.4, MBX-102 acid 2000 μM): 0.005; %Bound (human serum albumin): > 98%; %Bound (human serum albumin; listed as MBX-102): 99.1%; Kd (human serum albumin; high-affinity site, two-independent-site model, 37°C, pH 7.4): 5.8 µM; Free Fraction Ratio Rat:Human (rat and human plasma; MBX-102 acid 100 μM): 2.3 ± 0.6; Free Fraction Ratio Rat:Human (rat and human plasma; MBX-102 acid 300 μM): 2.3 ± 0.6; Free Fraction Ratio Rat:Human (rat and human plasma; MBX-102 acid 700 μM): 2.0 ± 0.3; Free Fraction Ratio Rat:Human (rat and human plasma; MBX-102 acid 1000 μM): 1.8 ± 0.2; Free Fraction Ratio Rat:Human (rat and human plasma; MBX-102 acid 1300 μM): 1.7 ± 0.2; Free Fraction Ratio Mouse:Human (mouse and human plasma; MBX-102 acid 100 μM): 10.5 ± 5.5; Free Fraction Ratio Mouse:Human (mouse and human plasma; MBX-102 acid 300 μM): 5.9 ± 3.6; Free Fraction Ratio Mouse:Human (mouse and human plasma; MBX-102 acid 700 μM): 3.7 ± 1.9; Free Fraction Ratio Mouse:Human (mouse and human plasma; MBX-102 acid 1000 μM): 2.6 ± 1.1; Free Fraction Ratio Mouse:Human (mouse and human plasma; MBX-102 acid 1300 μM): 2.3 ± 0.7; EC50 (Gal 4-Mouse PPAR-γ LBD; 0% human serum albumin (Figure 3), 2–6 experiments, mean ± SD, read-out: EC50 PPAR-γ activation): 14.4 ± 2.5 µM; EC50 (Gal 4-Mouse PPAR-γ LBD; 0% serum (Figure 2), 3 experiments, mean ± SD, read-out: EC50 PPAR-γ activation): 15.1 ± 1.9 µM; EC50 (Gal 4-Mouse PPAR-γ LBD; 0.08% human serum albumin (Figure 3), 2–6 experiments, mean ± SD, read-out: EC50 PPAR-γ activation): 44 ± 5.6 µM; EC50 (Gal 4-Mouse PPAR-γ LBD; 2% (v/v) human serum (Figure 2), 3 experiments, mean ± SD, read-out: EC50 PPAR-γ activation): 43.5 ± 6.9 µM; fold change in mean EC50 relative to no serum (Gal 4-Mouse PPAR-γ LBD; 2% human serum): 3 fold; EC50 (Gal 4-Mouse PPAR-γ LBD; 10% (v/v) human serum (Figure 2), 3 experiments, mean ± SD, read-out: EC50 PPAR-γ activation): 288 ± 39.6 µM; fold change in mean EC50 relative to no serum (Gal 4-Mouse PPAR-γ LBD; 10% human serum): 19 fold; EC50 (Gal 4-Mouse PPAR-γ LBD; 10% human serum (Table 4, Figure 4), 3 experiments, read-out: Mean EC50 ± SD, Human): 260 ± 16.9 µM; EC50 (Gal 4-Mouse PPAR-γ LBD; 10% mouse serum (Table 4, Figure 4), 3 experiments, read-out: Mean EC50 ± SD, Mouse): 170 µM; EC50 (Gal 4-Mouse PPAR-γ LBD; 10% rat serum (Table 4, Figure 4), 3 experiments, read-out: Mean EC50 ± SD, Rat): 196 ± 18 µM; EC50 (Gal 4-Mouse PPAR-γ LBD; 20% (v/v) human serum (Figure 2), 3 experiments, mean ± SD, read-out: EC50 PPAR-γ activation): 442 ± 29.8 µM; fold change in mean EC50 relative to no serum (Gal 4-Mouse PPAR-γ LBD; 20% human serum): 29 fold; intrinsic differences in ability to activate human, mouse, or rat PPAR-γ [2]: no intrinsic differences
